Entries after “also recorded” stand apart in the source; their conditions may differ.
Experiments:
[1] = tested on: tumor necrosis factor-α (TNF-α) produced by LPS activated neutrophils; test: TNF-α production by LPS activated neutrophils (ELISA); type: cell-based, rat
Procedure: (§1) The anti-inflammatory properties of the cationic fraction, IDP, and the combination of IDP with chondroitin and glucosamine were determined by measuring their ability to inhibit the production of the inflammatory compounds, tumor necrosis factor-α (TNF-α) and interleukin-6 (IL-6) produced by LPS activated neutrophils. […] Neutrophils were isolated from rat blood and incubated in the presence of LPS. LPS is derived from bacterial cell walls and is used to mimic a 'bacterial infection'. […] Two of these cytokine are TNF-α and IL-6. The concentrations of both cytokines produced by neutrophils exposed to LPS and the various test substances are summarised graphically in FIGS. 1 and 2 respectively. […] Aliquots from each set of triplicates were combined, and duplicates assayed for cytokine concentrations. The plate blank was subtracted from each individual data point. A VersaMax 96-well plate reader was used to colorimetrically assess the production of TNF-α and IL-6 as determined by the ELISA, using Rat TNF-α ELISA kit, R&D Systems, Cat # RTA00, and Rat IL-6 ELISA kit, R&D Systems, Cat # […]. The average cytokine concentration, standard deviation and standard error were calculated for each data set (sample and concentration). Preliminary statistical significance was assessed using independent Student t-tests at α≦0.05.

[2] = tested on: interleukin-6 (IL-6) produced by LPS activated neutrophils; test: IL-6 production by LPS activated neutrophils (ELISA); type: cell-based, rat; details: for effect on IL-6, in words / inhibition of IL-6 production: over the concentrations tested; for inhibition of IL-6 production: concentration not given
Procedure: as §1

[3] = Rattus norvegicus, Neutrophil, 4 μg/ml, relative to LPS only control
[4] = Rattus norvegicus, Neutrophil, 12 μg/ml, relative to LPS only control
[5] = Rattus norvegicus, Neutrophil, 1 μg/ml, relative to LPS only control
[6] = Rattus norvegicus, Neutrophil, 10 μg/ml, relative to LPS only control
[7] = Rattus norvegicus, Neutrophil, 100 μg/ml, relative to LPS only control
[8] = Rattus norvegicus, Neutrophil, read-out: TNF-α % Inhibition
[9] = Rattus norvegicus, Neutrophil, read-out: IL-6 % Inhibition
[10] = 300 μg/ml, relative to LPS only control
[11] = Rattus norvegicus, Neutrophil, 300 μg/ml, relative to LPS only control

## COc1cc(/C=C/C(=O)CC(=O)/C=C/c2ccc(O)c(OC)c2)ccc1O [Curcumin, curcumin]
[1]
  dose response on TNF-α, in words: no apparent dose effect
[1]; 4 μg/ml
  TNF-α: 146.71 pg/mL
[1]; 12 μg/ml
  TNF-α: 180.66 pg/mL
[1]; [3]
  inhibition at 4 µg/mL: 46.7%
[1]; [4]
  inhibition at 12 µg/mL: 34.4%
[1]; over the concentrations tested, concentration not given
  inhibition of TNF-α production: approximately 50%
[2]
  dose response on IL-6, in words: no apparent dose effect
  effect on IL-6, in words: close to complete inhibition
  inhibition of IL-6 production: 90%
[2]; 4 μg/ml
  IL-6: 38.65 pg/mL
[2]; 12 μg/ml
  IL-6: 31.14 pg/mL
[2]; [3]
  inhibition at 4 µg/mL: 87%
[2]; [4]
  inhibition at 12 µg/mL: 89.5%

## O=C(O)Cc1ccccc1Nc1c(Cl)cccc1Cl [Diclofenac]
[1]
  dose response on TNF-α, in words: inverse dose response
[1]; 1 μg/ml
  TNF-α: 132.01 pg/mL
[1]; 1 μg/ml, relative to LPS only control
  TNF-α % Inhibition: 52.1%
[1]; 10 μg/ml
  TNF-α: 151.97 pg/mL
[1]; 100 μg/ml
  TNF-α: 342.46 pg/mL
  effect on TNF-α, in words: appeared to stimulate TNF-α
[1]; 100 μg/ml, listed as Voltaren (Diclofenac)
  TNF-α: 342 pg/mL
[1]; [5]
  inhibition at 1 µg/mL: 52%
[1]; [6]
  inhibition at 10 µg/mL: 44.8%
[1]; [7]
  inhibition at 100 µg/mL: -24.4%
[2]
  dose response on IL-6, in words: inverse dose response
[2]; 1 μg/ml
  IL-6: 78.39 pg/mL
[2]; 10 μg/ml
  IL-6: 90.55 pg/mL
[2]; 100 μg/ml
  IL-6: 185.71 pg/mL
[2]; [5]
  inhibition at 1 µg/mL: 73.6%
[2]; [6]
  inhibition at 10 µg/mL: 69.5%
[2]; [7]
  inhibition at 100 µg/mL: 37.4%
[2]; listed as Voltaren (Diclofenac)
  inhibition of IL-6 production: 74-38%

## CCN(CC)CCCC(C)Nc1ccnc2cc(Cl)ccc12 (stereo not shown) [Chloroquine]
[1]; 50 μM
  TNF-α: 0 pg/mL
[1]; 100 μM
  TNF-α: 0 pg/mL
[1]; [8]
  inhibition at 50 µM: 100%
  inhibition at 100 µM: 100%
[1]; over the concentrations tested
  effect on TNF-α, in words: completely inhibiting; also recorded: completely inhibited
[2]; 50 μM
  IL-6: 0 pg/mL
[2]; 100 μM
  IL-6: 0 pg/mL
[2]; [9]
  inhibition at 50 µM: 100%
  inhibition at 100 µM: 100%
[2]
  effect on IL-6, in words: completely inhibiting; also recorded: completely inhibited

## CC(=O)Oc1ccccc1C(=O)O [Aspirin, acetylsalicylic acid]
[1]
  dose response on TNF-α, in words: characteristic dose response
[1]; 100 μg/ml
  TNF-α: 159.17 pg/mL
[1]; 300 μg/ml
  TNF-α: 99.45 pg/mL
[1]; [10]
  TNF-α % Inhibition: 63.9%
[1]; [7]
  inhibition at 100 µg/mL: 42.2%
[1]; [11]
  inhibition at 300 µg/mL: 64%
[1]; over the concentrations tested
  effect on TNF-α, in words: reducing both TNF-α and IL-6 levels significantly
[2]
  dose response on IL-6, in words: characteristic dose response
  effect on IL-6, in words: reducing both TNF-α and IL-6 levels significantly
[2]; 100 μg/ml
  IL-6: 63.2 pg/mL
[2]; 300 μg/ml
  IL-6: 0 pg/mL
[2]; [10]
  IL-6 % Inhibition: completely inhibited
[2]; [7]
  inhibition at 100 µg/mL: 78.7%
[2]; [11]
  inhibition at 300 µg/mL: 100%
